Reference: US20100210555A1, “USE OF A LAMININ PEPTIDE AS A THERAPEUTIC AGENT” (priority 2007, published 2010)
Where no end group is shown, it is not given here.

Key:
HCMV strain AD169 = assay: HCMV plaque formation assay in MRC-5 cells; settings: for inhibition of HCMV plaque formation as compared to the virus control: 10 micrograms per ml, 7-10 days
[1] = system: Primary Human endothelial cells (HUVEC); assay: Endothelial cell migration assay; format: cell-based; settings: 10 micrograms per ml, 22 hours, combination peptide 1:peptide 2 0.95 mole: 1.05 mole
HUVEC = assay: Endothelial tube formation assay; format: cell-based, human; settings: 10 micrograms per ml, 20 hours, combination peptide 1:peptide 2 0.95 mole: 1.05 mole
From the text: Positive control was vehicle only.

spleen cells = assay: Th1/Th2 cytokine profiling assay; format: cell-based, Balb/c mice; settings: 10 micrograms per ml; Ovalbumin restimulation, 72 hours
[2] = system: hepatitis B virus (HBV) ayw strain; assay: HBV experimental assay system (HepG2-2.2.15, TaqMan PCR of secreted HBV DNA); format: cell-based; settings: 10 micrograms per ml; HepG2-2.2.15 cells, six days
From the text: HepG2-2.2.15 is a stable cell line containing the hepatitis B virus (HBV) ayw strain genome (ATCC Cat. No. CRL-11997). Antiviral compounds blocking any late step of viral replication such as transcription, translation, pregenome encapsidation, reverse transcription, particle assembly and release can be identified and characterized using this cell line. In this assay, an active compound will reduce the production of secreted HBV from cells, measured by utilizing real time quantitative PCR (TaqMan) assay to directly and accurately measure HBV DNA copies.
HepG2-2.2.15 cells were plated in 96-well microtiter plates. After 16-24 hours the confluent monolayer of HepG2-2.2.15 cells was washed and the medium was replaced with complete medium containing test peptides—10 micrograms per ml—in duplicate. […] Six days following the initial administration of the peptides, the cell culture supernatants was collected, treated with pronase and DNAse and then used in a real-time quantitative TaqMan PCR assay. The PCR-amplified HBV DNA was detected in real-time by monitoring increases in fluorescence signals that result from the exonucleolytic degradation of a quenched fluorescence probe molecule that hybridizes to the mplified HBV DNA. […] Antiviral activity was calculated from the reduction in HBV DNA levels (% virus control). […]

| Compound | inhibition of HCMV plaque formation as compared to the virus control (HCMV strain AD169) | inhibition of the migration of human endothelial cells [1] | inhibition of the tube formation of endothelial cells (HUVEC) | IFNγ spleen cells; TH1 response (% of control) (spleen cells) | IL-2 spleen cells (% of control) (spleen cells) | IL-4 spleen cells; TH2 response (% of control) (spleen cells) | IL-5 spleen cells; TH2 response (% of control) (spleen cells) | TNF-a spleen cells; TH1 response (% of control) (spleen cells) | inhibition of HBV replication as compared to the virus control infection [2] | antiviral activity of positive control compound (HCMV) (HCMV strain AD169; positive control, HCMV AD169) |
| --- | --- | --- | --- | --- | --- | --- | --- | --- | --- | --- |
| Pro-His-Pro-Phe-His-Leu-Phe-Val-Tyr-OH (PHPFHLFVY-OH) [peptide 2] | did not inhibit | 33% | 27% | 76.6 % of control | 70.7 % of control | 113.5 % of control | 57.6 % of control | 111.8 % of control | no effect | – |
| Nc1nc(O)c2ncn(COC(CO)CO)c2n1 [Ganciclovir, reference compound] | – | – | – | – | – | – | – | – | – | expected levels of antiviral activity |
| Cys-Ser-Arg-Ala-Arg-Lys-Gln-Ala-Ala-Ser-Ile-Lys-Val-Ala-Val-Ser-Ala-Asp-Arg-OH (CSRARKQAASIKVAVSADR-OH) [peptide 1] | did not inhibit | 32% | 30% | 88.8 % of control | 66.8 % of control | 148.8 % of control | 64.5 % of control | 101.0 % of control | 22.1% | – |
